Some test systems named below: 786-0 renal; ACHN renal; COLO 205 colon; HCT-116 colon; HL-60(TB) leukemia; IGROV1 ovarian; K-562 leukemia; SNB-19 CNS; UO-31 renal; CCRF-CEM leukemia.
Assay in all cases: NCI-60 cell line screen, 48 h

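Briefly, cells in 96-well plates were exposed to five compound concentrations for 48 h, and endpoints were estimated by linear interpolation. The concentration for 50% growth inhibition is given as GI50. TGI is the concentration that stops growth completely.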

For `NC(=O)COc1ccc(Br)cc1Br`, the TGI in the assay with 786-0 renal, in the assay on ACHN renal, with COLO 205 colon, in the assay on HCT-116 colon, in the assay on HL-60(TB) leukemia and in the assay on IGROV1 ovarian was over 100 µM throughout. Also, the TGI in the assay on K-562 leukemia, with SNB-19 CNS and in the assay on UO-31 renal was over 100 µM in each case.
As for `CCN(CC)CCn1nc2c3c(cccc3c1=O)-c1ccccc1-2`, the GI50 in the assay with 786-0 renal was 2.44 µM; in the assay on CCRF-CEM leukemia, 2.08 µM; in the assay on COLO 205 colon it was 1.86 µM; with HCT-116 colon, 1.78 µM; in the assay with HL-60(TB) leukemia, 1.8 µM; with IGROV1 ovarian, 2.06 µM. Moreover, the GI50 in the assay on K-562 leukemia was 2.03 µM; with SNB-19 CNS, 2.63 µM; in the assay on UO-31 renal it was 1.25 µM. Besides, the TGI in the assay on 786-0 renal is 48.8 µM; in the assay with CCRF-CEM leukemia, 45.9 µM; in the assay on COLO 205 colon it was 10.2 µM; in the assay with HCT-116 colon, over 50 µM; in the assay on HL-60(TB) leukemia, 9.22 µM; with IGROV1 ovarian it was over 50 µM. The TGI in the assay on K-562 leukemia, in the assay on SNB-19 CNS and in the assay on UO-31 renal was over 50 µM in each case.
For `CC(C)C(NCc1c2ccccc2nc2ccccc12)C(=O)O` (stereo not drawn), the TGI with 786-0 renal is over 100 µM; in the assay with ACHN renal, over 100 µM; in the assay on CCRF-CEM leukemia, 88.3 µM; in the assay with COLO 205 colon, over 100 µM; in the assay on HCT-116 colon, over 100 µM; in the assay on HL-60(TB) leukemia it was 73.8 µM. In addition, the TGI in the assay with IGROV1 ovarian and in the assay on K-562 leukemia was over 100 µM in each case.
Turning to `Clc1ccc2c(NCCNc3nc(Cl)nc4ccccc34)ccnc2c1`, the GI50 with 786-0 renal was 1.08 µM; with ACHN renal it was 1.61 µM; in the assay on CCRF-CEM leukemia, 0.331 µM; in the assay on COLO 205 colon, 0.863 µM; in the assay with HCT-116 colon it was 0.218 µM; in the assay on HL-60(TB) leukemia, 0.231 µM. For the same molecule, the GI50 with IGROV1 ovarian is 1.13 µM; with K-562 leukemia, 0.255 µM; with UO-31 renal it was 1.5 µM. For the same molecule, the TGI in the assay on 786-0 renal stood at 2.46 µM; with ACHN renal it was 3 µM; in the assay on CCRF-CEM leukemia, 1.04 µM; in the assay on COLO 205 colon, 2.32 µM; in the assay on HCT-116 colon it was 0.531 µM; in the assay with HL-60(TB) leukemia it was 0.656 µM. In addition, the TGI came to 2.7 µM in the assay with IGROV1 ovarian, 0.614 µM with K-562 leukemia and 2.94 µM in the assay with UO-31 renal.
Consider `O=C1/C(=C/c2ccc(Cl)cc2)COc2ccc(Br)cc21`, for which the TGI in the assay on 786-0 renal, in the assay on ACHN renal, in the assay on CCRF-CEM leukemia, in the assay with COLO 205 colon, in the assay with HCT-116 colon and in the assay on HL-60(TB) leukemia was over 100 µM throughout. Moreover, the TGI with IGROV1 ovarian, in the assay with K-562 leukemia and with UO-31 renal was over 100 µM each time.
For `O=C(c1nc2ccccc2[nH]1)C1C(c2cccc([N+](=O)[O-])c2)C2CC3CCCCC3N2[C@@]12C(=O)Nc1cc(Cl)ccc12` (stereo partly drawn), the GI50 in the assay with 786-0 renal is 1.89 µM; in the assay on ACHN renal, 2.23 µM; in the assay with CCRF-CEM leukemia, 3.11 µM; in the assay with HL-60(TB) leukemia, 2.58 µM; in the assay on IGROV1 ovarian, 1.54 µM; with K-562 leukemia, 2.6 µM. The values for the GI50 in the assay with SNB-19 CNS and with UO-31 renal were 2.04 µM and 1.38 µM, respectively. Besides, the TGI in the assay with 786-0 renal is 4.52 µM; with ACHN renal it was 7.2 µM; in the assay on CCRF-CEM leukemia it was over 100 µM; in the assay on HL-60(TB) leukemia, 6.67 µM; in the assay on IGROV1 ovarian, 3.69 µM; in the assay with K-562 leukemia it was over 100 µM. For the same molecule, the TGI in the assay on SNB-19 CNS came out at 6.43 µM; with UO-31 renal, 3.16 µM.
As to `CCN1CCN(c2nc(NNC(=O)c3cccc(OC)c3)nc(N3CCN(C(c4ccccc4)c4ccccc4)CC3)n2)CC1`, the GI50 in the assay with 786-0 renal was 1.84 µM; with ACHN renal, 1.93 µM; in the assay on CCRF-CEM leukemia, 2.6 µM; in the assay with COLO 205 colon, 2.22 µM; in the assay with HCT-116 colon it was 1.61 µM; in the assay with IGROV1 ovarian it was 1.89 µM. Also, the values for the GI50 in the assay on K-562 leukemia, with SNB-19 CNS and in the assay on UO-31 renal were 2.79 µM, 4.63 µM and 1.23 µM, respectively. For the same molecule, the TGI is 3.58 µM in the assay with 786-0 renal; 3.77 µM in the assay with ACHN renal; over 100 µM with CCRF-CEM leukemia; 5.55 µM in the assay with COLO 205 colon; 3.22 µM in the assay on HCT-116 colon; 4.34 µM in the assay on IGROV1 ovarian. The TGI in the assay on K-562 leukemia is over 100 µM; in the assay on SNB-19 CNS, 26.3 µM; in the assay on UO-31 renal, 2.47 µM.
For the molecule `O=[P+](O)c1cc2c3ccccc3ccc2c2ccccc12`, the TGI in the assay on 786-0 renal, with CCRF-CEM leukemia, in the assay with COLO 205 colon, with HCT-116 colon, in the assay on HL-60(TB) leukemia and in the assay with IGROV1 ovarian was over 100 µM in each case. For the same molecule, the TGI in the assay on K-562 leukemia and with SNB-19 CNS was over 100 µM each time.
On to `O=c1cc(-c2ccccc2)[nH]c2c(F)ccc(F)c12`, for which the TGI in the assay on 786-0 renal, with ACHN renal, in the assay on CCRF-CEM leukemia, in the assay on COLO 205 colon, in the assay on HCT-116 colon and in the assay on HL-60(TB) leukemia was over 100 µM each time. Besides, the TGI with IGROV1 ovarian, with K-562 leukemia and in the assay with UO-31 renal was over 100 µM each time.
With `CC(=O)[O-].CC(=O)[O-].CC(=O)[O-].CC(=O)[O-].CO.CO.CO.[Rh+2].[Rh+2].c1ccc(-c2ccccn2)nc1`, the GI50 in the assay on 786-0 renal is over 100 µM; with ACHN renal, over 100 µM; in the assay on CCRF-CEM leukemia, 44.6 µM; in the assay with COLO 205 colon, over 100 µM; in the assay on HCT-116 colon it was over 100 µM; with IGROV1 ovarian, over 100 µM. The GI50 in the assay on SNB-19 CNS and with UO-31 renal was over 100 µM each time. Moreover, the TGI in the assay with 786-0 renal, in the assay with ACHN renal, in the assay with CCRF-CEM leukemia, with COLO 205 colon, in the assay on HCT-116 colon and with IGROV1 ovarian was over 100 µM each time. Further, the TGI in the assay on SNB-19 CNS and in the assay on UO-31 renal was over 100 µM each time.
Consider `Cn1c(-c2cccs2)cc(-c2ccsc2)c1-c1ccsc1`, for which the TGI in the assay with 786-0 renal, in the assay with ACHN renal, in the assay on CCRF-CEM leukemia, in the assay with COLO 205 colon, with HCT-116 colon and with IGROV1 ovarian was over 100 µM in each case. Moreover, the TGI in the assay with K-562 leukemia, with SNB-19 CNS and in the assay with UO-31 renal was over 100 µM throughout.
